melting point [°C] | SMILES
75 to 77 | COCn1cc(C(=O)Nc2ccccc2C(C)CC(C)C)c(C(F)(F)F)c1 (centres unmarked)
83 to 85 | CC(C)CC(C)c1ccccc1NC(=O)c1cn(C)cc1C(F)(F)F (centres unmarked)

— patent publication US7105565B2 (dated 2006)
